Test results published in ChEMBL document CHEMBL5316360, “Fatty Acid Conjugated Chalcones as Tubulin Polymerization Inhibitors: Design, Synthesis, QSAR, and Apoptotic and Antiproliferative Activity” (J Nat Prod, 2023).
One block for each molecule: values may come before it.

Experiments:
[1] = test system: WI-38; assay: Cytotoxicity against human WI-38 cells assessed as reduction in cell viability at 10 to 100 uM measured after 24 hrs by MTT assay; format: toxicity, cell-based; details: wi-38, 24 h, dose 10-100 µM
[2] = test system: A549; assay: Antiproliferative activity against human A549 cells assessed as inhibition of cell growth measured after 24 hrs by MTT assay; format: functional, cell-based; details: A549, 24 h
[3] = target: Tubulin (Homo sapiens) (UniProt P68371+Q9H4B7+P0DPH7+P68366+Q13509+Q71U36+P04350+Q3ZCM7+P07437+P68363+Q9BQE3+Q6PEY2+Q13885+Q9BVA1+Q9BUF5); assay: Inhibition of tubulin polymerization in human MCF7 cells assessed as fold increase in tubulin inhibition incubated for 18 to 24 hrs by ELISA method; format: cell-based; details: time 18-24 hrs
[4] = test system: MCF7; assay: Antiproliferative activity against human MCF7 cells assessed as inhibition of cell growth measured after 24 hrs by MTT assay; format: functional, cell-based; details: MCF7, 24 h
[5] = test system: Erythrocyte; assay: Hemolytic activity in Albino rat RBC at 150 uM incubated for 15 mins by spectrophotometric analysis; format: toxicity, cell-based; details: 0.25 h
[6] = target: Tubulin; assay: Inhibition of tubulin polymerization in human MCF7 cells incubated for 18 to 24 hrs by ELISA method; format: cell-based

IC50 [2]: 3200 nM | fold change (FC) [3]: 2 | IC50 [4]: 2900 nM
Structure (SMILES): CCCCCCCCCC(=O)Nc1ccc(C(=O)/C=C/c2ccc(Cl)cc2)cc1
Activity [1]: Non-Toxic

IC50 [2]: 2100 nM | fold change (FC) [3]: 2 | IC50 [4]: 2600 nM
Structure (SMILES): CCCCCCCCCC(=O)Nc1ccc(C(=O)/C=C/c2ccc(C)cc2)cc1
Activity [1]: Non-Toxic

Structure (SMILES): CCCCCCCCCCCCCCCC(=O)Nc1ccc(C(=O)/C=C/c2ccc(C)cc2)cc1
Activity [5]: Non-Toxic

IC50 [2]: 650 nM
Structure (SMILES): CCCCCCCCCC(=O)Nc1ccc(C(=O)/C=C/c2ccccc2)cc1
Activity [1]: Non-Toxic

Structure (SMILES): CCCCCCCCCCCCCCCC(=O)Nc1ccc(C(=O)/C=C/c2ccc(Cl)cc2)cc1
Activity [5]: Non-Toxic

IC50 [6]: 800 nM
Structure (SMILES): CCCCCCCCCCCCCCCCCC(=O)Nc1ccc(C(=O)/C=C/c2ccccc2)cc1
Activity [1]: Non-Toxic

Structure (SMILES): CCCCCCCCCCCCCC(=O)Nc1ccc(C(=O)/C=C/c2ccccc2)cc1
Activity [1]: Non-Toxic

Structure (SMILES): CCCCCCCCCCCCCCCC(=O)Nc1ccc(C(=O)/C=C/c2ccccc2)cc1
Activity [1]: Non-Toxic

IC50 [6]: 1500 nM | IC50 [4]: 2100 nM
Structure (SMILES): CCCCCCCC(=O)Nc1ccc(C(=O)/C=C/c2ccccc2)cc1
Activity [1]: Non-Toxic

Structure (SMILES): CCCCCCCCCCCCCCCC(=O)Nc1ccc(C(=O)/C=C/c2ccc(OC)cc2)cc1
Activity [5]: Non-Toxic

fold change (FC) [3]: 2
Structure (SMILES): CCCCCCCCCC(=O)Nc1ccc(C(=O)/C=C/c2ccc(OC)cc2)cc1
